Measurements as given in ChEMBL document CHEMBL3797065, “Kaurane and abietane diterpenoids from the roots of Tripterygium wilfordii and their cytotoxic evaluation” (Bioorg Med Chem Lett, 2016).

Assays:
[1] = Cytotoxicity against human Hep3B cells after 48 hrs by MTT assay; assay type: functional, cell-based, Hep 3B2
A549 = experiment: Cytotoxicity against human A549 cells after 48 hrs by MTT assay; assay type: functional, cell-based; settings: A549, 48 h
HepG2 = experiment: Cytotoxicity against human HepG2 cells after 48 hrs by MTT assay; assay type: functional, cell-based; settings: HepG2, 48 h
Bcap37 = experiment: Cytotoxicity against human Bcap37 cells after 48 hrs by MTT assay; assay type: functional, cell-based; settings: Bcap37, 48 h
U-251 = experiment: Cytotoxicity against human U251 cells after 48 hrs by MTT assay; assay type: functional, cell-based; settings: U-251, 48 h
MCF7 = experiment: Cytotoxicity against human MCF7 cells after 48 hrs by MTT assay; assay type: functional, cell-based; settings: MCF7, 48 h

CC(C)c1ccc2c(c1O)CC[C@H]1C3=C(CC[C@]21C)C(=O)OC3 [TRIPTOPHENOLIDE]
IC50 [1]: 22.2 µM | IC50 (A549): 42.9 µM | IC50 (HepG2): 17 µM | IC50 (Bcap37): 22.4 µM | IC50 (U-251): > 100 µM | IC50 (MCF7): > 100 µM

COc1c(C(C)C)cc(O)c2c1CC[C@H]1C(C)(C)C(=O)CC[C@]21C
IC50 [1]: 39.8 µM | IC50 (A549): > 100 µM | IC50 (HepG2): 47.8 µM | IC50 (Bcap37): > 100 µM | IC50 (U-251): 29.3 µM | IC50 (MCF7): > 100 µM

COc1c(C(C)C)cc(O)c2c1CCC1=C(C)C(=O)CC[C@@]12C
IC50 [1]: 18.2 µM | IC50 (A549): 17.4 µM | IC50 (HepG2): 5.1 µM | IC50 (Bcap37): 7.93 µM | IC50 (U-251): 8.62 µM | IC50 (MCF7): 5.73 µM

CC(C)c1ccc2c(c1O)CC[C@H]1C(C)(C)[C@@H](O)CC[C@]21C
IC50 [1]: > 100 µM | IC50 (A549): > 100 µM | IC50 (HepG2): 46.3 µM | IC50 (Bcap37): > 100 µM | IC50 (U-251): > 100 µM | IC50 (MCF7): > 100 µM

COc1cc2c(c(O)c1C(C)C)CC[C@H]1C(C)=C(C(=O)O)CC[C@]21C
IC50 [1]: 29.7 µM | IC50 (A549): > 100 µM | IC50 (HepG2): 42.5 µM | IC50 (Bcap37): 37.6 µM | IC50 (U-251): > 100 µM | IC50 (MCF7): > 100 µM

C[C@@]12CCC[C@]3(C(=O)OC1)[C@@H]2CC[C@@]12C[C@H](CC[C@H]13)[C@](C)(O)C2
IC50 [1]: > 100 µM | IC50 (A549): > 100 µM | IC50 (HepG2): 97.1 µM | IC50 (Bcap37): > 100 µM | IC50 (U-251): > 100 µM | IC50 (MCF7): > 100 µM

CC(C)c1ccc2c(c1)CC[C@H]1[C@@](C)(CO)C(=O)CC[C@]21C
IC50 [1]: > 100 µM | IC50 (A549): 39 µM | IC50 (HepG2): 32.7 µM | IC50 (Bcap37): > 100 µM | IC50 (U-251): > 100 µM | IC50 (MCF7): > 100 µM

CO[C@@H]1OC[C@@]23CCC[C@@]1(C)[C@@H]2CC[C@@]12C[C@@H](CC[C@H]13)[C@](C)(O)C2 (relative stereo)
IC50 [1]: 48.9 µM | IC50 (A549): 39.3 µM | IC50 (HepG2): 28.5 µM | IC50 (Bcap37): 11.6 µM | IC50 (U-251): 13.5 µM | IC50 (MCF7): > 100 µM

O=c1[nH]cc(F)c(=O)[nH]1 [FLUOROURACIL]
IC50 [1]: 17.5 µM | IC50 (A549): 21.6 µM | IC50 (Bcap37): 15.5 µM | IC50 (U-251): 24.7 µM

CC(C)c1ccc2c(c1O)CC[C@H]1[C@@](C)(CO)[C@@H](O)CC[C@]21C
IC50 [1]: 48.7 µM | IC50 (A549): 30.1 µM | IC50 (HepG2): 36.3 µM | IC50 (Bcap37): > 100 µM | IC50 (U-251): > 100 µM | IC50 (MCF7): 23.8 µM

COc1c(C(C)C)cc(O)c2c1CC[C@H]1[C@@](C)(CO)C(=O)CC[C@]21C
IC50 [1]: 28.7 µM | IC50 (A549): 21.6 µM | IC50 (HepG2): 21.9 µM | IC50 (Bcap37): > 100 µM | IC50 (U-251): > 100 µM | IC50 (MCF7): 23.2 µM

CC(C)C1=CC(=O)C2=C(CC[C@H]3[C@@](C)(CO)[C@@H](O)CC[C@]23C)C1=O
IC50 [1]: 17.4 µM | IC50 (A549): 11.5 µM | IC50 (HepG2): > 100 µM | IC50 (Bcap37): > 100 µM | IC50 (U-251): 43.6 µM | IC50 (MCF7): 11.4 µM

CC(C)c1ccc2c(c1)C(=O)C[C@H]1[C@@](C)(CO)C(=O)CC[C@]21C [TRIPTOBENZENE N]
IC50 [1]: > 100 µM | IC50 (A549): 32.8 µM | IC50 (HepG2): 43.7 µM | IC50 (Bcap37): > 100 µM | IC50 (U-251): > 100 µM | IC50 (MCF7): > 100 µM

C=C1C(OC(C)=O)[C@]23[C@H](O)[C@H]1CC[C@H]2[C@]12CCCC(C)(C)[C@H]1[C@H](OC(C)=O)[C@@]3(O)OC2 (stereo not given in full)
IC50 [1]: 48.3 µM | IC50 (A549): 21.9 µM | IC50 (HepG2): 38.4 µM | IC50 (Bcap37): > 100 µM | IC50 (U-251): > 100 µM | IC50 (MCF7): 37.4 µM

C[C@@]1(O)C[C@@]23CC[C@H]4[C@@]5(CCC[C@]4(C)C(=O)OC5)[C@@H]2CC[C@H]1C3 [TRIPTERIFORDIN]
IC50 [1]: > 100 µM | IC50 (A549): > 100 µM | IC50 (HepG2): > 100 µM | IC50 (Bcap37): > 100 µM | IC50 (U-251): > 100 µM | IC50 (MCF7): > 100 µM

C[C@]12C3=C4CC=C[C@@]3(O)OO[C@@H]1CC1=C(COC1=O)[C@@H]2CC4
IC50 [1]: 18 µM | IC50 (A549): 11.3 µM | IC50 (HepG2): 10.9 µM | IC50 (Bcap37): 8.11 µM | IC50 (U-251): 20.2 µM | IC50 (MCF7): 23.3 µM

CC(C)C1=CC(=O)C2=C(CC[C@H]3[C@@](C)(CO)C(=O)CC[C@]23C)C1=O
IC50 [1]: 26 µM | IC50 (A549): 19.9 µM | IC50 (HepG2): 26.3 µM | IC50 (Bcap37): 13.3 µM | IC50 (U-251): > 100 µM | IC50 (MCF7): 16.7 µM

CO[C@@H]1OC[C@@]2(C)CCC[C@]13[C@@H]1CC[C@H]4C[C@@]1(CC[C@@H]23)C[C@@]4(C)O
IC50 [1]: > 100 µM | IC50 (A549): > 100 µM | IC50 (HepG2): > 100 µM | IC50 (Bcap37): > 100 µM | IC50 (U-251): > 100 µM | IC50 (MCF7): > 100 µM

COc1c(C(C)C)cc(O)c2c1CC[C@H]1C(C)=C(C(=O)O)CC[C@]21C
IC50 [1]: > 100 µM | IC50 (A549): > 100 µM | IC50 (HepG2): > 100 µM | IC50 (Bcap37): > 100 µM | IC50 (U-251): > 100 µM | IC50 (MCF7): > 100 µM

CC1=C(C(=O)O)CC[C@]2(C)C3=C(CC[C@@H]12)C(=O)C(C(C)C)=CC3=O
IC50 [1]: > 100 µM | IC50 (A549): > 100 µM | IC50 (HepG2): > 100 µM | IC50 (Bcap37): > 100 µM | IC50 (U-251): > 100 µM | IC50 (MCF7): > 100 µM

C[C@@]1(O)C[C@@]23CC[C@H]4[C@@]5(CCC[C@]4(C)C(=O)OC5)[C@]2(O)CC[C@H]1C3
IC50 [1]: > 100 µM | IC50 (A549): > 100 µM | IC50 (HepG2): > 100 µM | IC50 (Bcap37): > 100 µM | IC50 (U-251): > 100 µM | IC50 (MCF7): > 100 µM

CC(C)C1=C[C@@]2(O)OO[C@@H]3CC(=O)[C@](C)(CO)[C@@H]4CCC(=C2[C@]43C)C1=O
IC50 [1]: 17.7 µM | IC50 (A549): 10.7 µM | IC50 (HepG2): > 100 µM | IC50 (Bcap37): > 100 µM | IC50 (U-251): 24.9 µM | IC50 (MCF7): > 100 µM
